Experiment [1] addresses T1, Recombinant human JAK2 (catalytic domain, amino acids 808-1132) (Homo sapiens, UniProt O60674).
T1 construct: catalytic domain, amino acids 808-1132
In words: JAK2 inhibition assay. Also: 0.7 µM ATP. It counts as biochemical. The note with it: read-out: JAK2 potency IC50.

The target of experiment [2] is T2, Recombinant human JAK1 (catalytic domain, amino acids 866-1154) (Homo sapiens, UniProt P23458).
T2 construct: catalytic domain, amino acids 866-1154
Nature of the experiment: JAK1 inhibition assay. Format: biochemical. Particulars: read-out: JAK1 potency IC50.

For experiment [3], the target named is Recombinant human JAK3 catalytic domain (amino acids 781-1124) (Homo sapiens, UniProt P52333). In words: JAK3 inhibition assay. Format: biochemical. In short, it runs like this:
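Radiometric kinase reaction run 45 min at 30° C., stopped with phosphoric acid; activity as vehicle cpm minus 10 μM staurosporine cpm.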

The subject of experiment [4] is IL-12 activation of STAT4 in NK-92 cells. Nature of the experiment: IL-12 activation of STAT4 in NK-92 cells using MSD as readout. It counts as cell-based. The note with it: Homo sapiens. The protocol: IL-2 is added freshly to the medium with each medium refreshment step. Cells are cultured in a humidified incubator at 37° C. 5% CO2.
NK-92 cells are pre-incubated with test compounds or vehicle for 30 min at 37° C. 5% CO2. […] NK-92 cells are triggered with rhIL-12 for 45 min at 37° C. 5% CO2.
After 45 min of cytokine stimulation the cells are lysed by addition of 50 μL ice-cold lysis buffer (supplemented with the MSD kit). Plates are frozen at −80° C. for minimal 1 hour to lyse the cells completely. After thawing the levels of phospho-STAT4 are quantified using the Phospho-STAT4 (Tyr693) kit (MSD, Catalogue number K150PAD-2) according to the manufacturer's instructions. Electroluminescent signal is measured on the MSD reader.
The percentage inhibition is calculated as: […]
RLU (trigger/veh): Relative lumescent signal determined in presence of vehicle and trigger
RLU (test compound): Relative luminescent signal determined in presence of test compounds)
PIN values are plotted for compounds tested in dose-response and IC50 values are derived using LIMS Software applying non-linear regression (sigmoidal) curve fitting. The data are expressed as the average IC50 from different experiments.

The target of experiment [5] is T3, Recombinant human TYK2 catalytic domain (amino acids 871-1187) (Homo sapiens, UniProt P29597).
T3 construct: catalytic domain (amino acids 871-1187)
T3 sequence (P29597 871-1187): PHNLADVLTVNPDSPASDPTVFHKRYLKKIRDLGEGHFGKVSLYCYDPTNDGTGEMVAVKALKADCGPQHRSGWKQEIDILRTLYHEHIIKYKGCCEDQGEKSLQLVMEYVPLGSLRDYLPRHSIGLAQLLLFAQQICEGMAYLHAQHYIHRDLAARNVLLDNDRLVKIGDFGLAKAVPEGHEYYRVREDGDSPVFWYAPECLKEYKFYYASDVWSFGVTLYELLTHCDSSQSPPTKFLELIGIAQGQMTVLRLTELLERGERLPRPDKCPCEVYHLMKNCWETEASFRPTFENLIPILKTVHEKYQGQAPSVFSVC
In words: TYK2 radioactive assay polyGT substrate. Also: 0.1 µM ATP. It counts as biochemical. In short, it runs like this: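 Reaction at 30° C. for 120 min, ended with 150 mM phosphoric acid, washed, counted; percent inhibition scaled between vehicle and 10 μM staurosporine cpm.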

The test system of experiment [6] is IFNα activation of STAT1 in PBMC. Nature of the experiment: IFNα activation of STAT1 in PBMC. It counts as cell-based. The note with it: Homo sapiens. In short, it runs like this:
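Human PBMC, with red cells lysed by NH4Cl, were pre-treated with compound for 30 min at 37 °C and 5% CO2. They were then stimulated for 30 min with recombinant human IFNα at 5 ng/mL final.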

Experiment [7] concerns IL-12 activation of STAT4 in NK-92 cells. Nature of the experiment: IL-12 activation of STAT4 in NK-92 cells using AphaLISA SureFire technology. It counts as cell-based. Particulars: Homo sapiens. The method in brief:
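NK-92 cells, starved of rhIL-2 overnight, were stimulated with rhIL-12 for 30 min at 37 °C with test compounds, then lysed. Phospho-STAT4 (Tyr693) was read by AlphaLISA SureFire. Percent inhibition versus the vehicle-plus-trigger signal was fitted by sigmoidal nonlinear regression to give IC50, averaged over experiments.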

The mark [8] stands for this setting: NK92, NK-92 cells, rhIL-12 25 ng/mL, MSD readout, read-out: IL12 pSTAT4 IC50.
[9] abbreviates: IFNα activation of STAT1 in PBMC, average IC50, read-out: IFNα signaling inhibitory potency IC50.
Setting [10] is: NK92, IL-12 activation of STAT4 in NK-92 cells, AlphaLISA SureFire, average IC50, read-out: IL12 pSTAT4 IC50.

Where a name gives a salt, the structure may show the parent alone. Read-outs that look alike come from different tables or passages of the source.

T1 sequence (O60674 808-1132): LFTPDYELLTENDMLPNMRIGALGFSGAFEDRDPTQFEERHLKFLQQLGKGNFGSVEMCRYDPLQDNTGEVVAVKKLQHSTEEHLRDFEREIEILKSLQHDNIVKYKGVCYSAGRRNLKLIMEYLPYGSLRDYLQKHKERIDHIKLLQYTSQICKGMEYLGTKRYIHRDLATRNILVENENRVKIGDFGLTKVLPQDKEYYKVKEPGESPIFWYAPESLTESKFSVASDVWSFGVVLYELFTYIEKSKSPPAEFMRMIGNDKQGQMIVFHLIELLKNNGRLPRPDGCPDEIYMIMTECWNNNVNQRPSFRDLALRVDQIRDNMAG
Recombinant human JAK3 catalytic domain (amino acids 781-1124), sequence (P52333 781-1124): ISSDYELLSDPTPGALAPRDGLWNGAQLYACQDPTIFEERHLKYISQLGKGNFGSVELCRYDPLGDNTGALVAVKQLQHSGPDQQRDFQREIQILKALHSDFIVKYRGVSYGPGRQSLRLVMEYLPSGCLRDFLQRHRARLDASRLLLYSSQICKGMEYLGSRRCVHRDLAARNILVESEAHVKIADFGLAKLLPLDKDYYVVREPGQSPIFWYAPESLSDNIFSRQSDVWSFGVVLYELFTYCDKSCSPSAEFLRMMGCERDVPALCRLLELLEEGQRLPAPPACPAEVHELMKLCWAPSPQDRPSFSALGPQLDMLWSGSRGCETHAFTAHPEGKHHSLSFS
T2 sequence (P23458 866-1154): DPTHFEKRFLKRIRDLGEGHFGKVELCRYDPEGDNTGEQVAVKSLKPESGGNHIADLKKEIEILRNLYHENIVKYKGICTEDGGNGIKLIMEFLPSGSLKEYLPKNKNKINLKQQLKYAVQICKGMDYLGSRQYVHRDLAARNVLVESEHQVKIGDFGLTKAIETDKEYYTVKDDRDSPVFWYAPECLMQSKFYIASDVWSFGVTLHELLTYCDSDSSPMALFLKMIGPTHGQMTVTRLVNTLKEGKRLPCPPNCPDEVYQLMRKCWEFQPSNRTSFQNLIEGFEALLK

By IC50 is commonly meant the concentration needed to halve the response being measured. Turning to `Cc1cc(C#N)ncc1Oc1cc(Nc2ccc(S(=O)(=O)N3CCOCC3)cc2)c2ncn(C)c2n1` [Compound 63], the half-inhibitory concentration (IC50) in experiment [1] is 70 nM; in experiment [2] it was 102 nM; in experiment [3] it was 584 nM; in experiment [4] (setting [8]), 1140 nM; in experiment [5], 7.58 nM; in experiment [6] (setting [9]) it was 128 nM.
Turning to `Cc1cc(C#N)ncc1Oc1cc(Nc2ccc(S(C)(=O)=O)cc2)c2ncn(C)c2n1` [Compound 60, 4-methyl-5-[3-methyl-7-(4-methylsulfonylanilino)imidazo[4,5-b]pyridin-5-yl]oxy-pyridine-2-carbonitrile], the IC50 in experiment [4] (setting [8]) is 1150 nM; in experiment [5], 9.72 nM; in experiment [6] (setting [9]), 73 nM.
For the compound `Cc1cc(C#N)ncc1Nc1cc(Nc2ccc(C(=O)N(C)C)cc2)c2ncn(C)c2n1` [Compound 66, 4-[[5-[(6-cyano-4-methyl-3-pyridyl)amino]-3-methyl-imidazo[4,5-b]pyridin-7-yl]amino]-N,N-dimethyl-benzamide], the half-maximal inhibitory concentration (IC50) came out at 1650 nM in experiment [4] (setting [8]), 11.7 nM in experiment [5], 138 nM in experiment [6] (setting [9]) and 205 nM in experiment [7] (setting [10]).
Take `Cc1cc(C#N)ncc1Oc1cc(Nc2ccc(C(=O)NCC(C)O)nn2)c2ncn(C)c2n1` (centres unmarked) [Compound 25, 6-[5-(6-Cyano-4-methyl-pyridin-3-yloxy)-3-methyl-3H-imidazo[4,5-b]pyridin-7-ylamino]-pyridazine-3-carboxylic acid (2-hydroxy-propyl)-amide]: the concentration for half-maximal inhibition (IC50) was 78.3 nM in experiment [1]; 243 nM in experiment [2]; 2300 nM in experiment [3]; 1120 nM in experiment [4] (setting [8]); 19.2 nM in experiment [5]; 198 nM in experiment [6] (setting [9]).
For `CN(c1cc(Nc2cc(N)ncn2)c2ncn(C)c2n1)C12CC(C1)C2` [Compound 18, N7-(6-Amino-pyrimidin-4-yl)-N5-bicyclo[1.1.1]pent-1-yl-3,N5-dimethyl-3H-imidazo[4,5-b]pyridine-5,7-diamine], the IC50 came to 31.5 nM in experiment [1]; 294 nM in experiment [2]; 187 nM in experiment [3]; 4680 nM in experiment [4] (setting [8]); 30.5 nM in experiment [5].
For `Cc1cc(S(C)(=O)=O)cc(F)c1Oc1cc(Nc2cc(N)ncn2)c2ncn(C)c2n1` [Compound 2, N-[5-(2-Fluoro-4-methanesulfonyl-6-methyl-phenoxy)-3-methyl-3H-imidazo[4,5-b]pyridin-7-yl]-pyrimidine-4,6-diamine], the IC50 amounted to 259 nM in experiment [4] (NK92, read-out: IL12 pSTAT4 IC50); 87 nM in experiment [6] (PBMC, read-out: IFNα signaling inhibitory potency IC50 (nM)); 73.5 nM in experiment [7] (NK92, read-out: IL12 pSTAT4 IC50 (nM)).
As for `CCNC(=O)c1ccc(Nc2cc(Oc3cnc(C#N)cc3C)nc3c2ncn3C)nn1` [Compound 23, 6-[5-(6-Cyano-4-methyl-pyridin-3-yloxy)-3-methyl-3H-imidazo[4,5-b]pyridin-7-ylamino]-pyridazine-3-carboxylic acid ethylamide], the concentration for half-maximal inhibition (IC50) in experiment [1] turned out to be 66.7 nM; in experiment [2], 234 nM; in experiment [3], 2930 nM; in experiment [4] (setting [8]), 248 nM; in experiment [5] it was 18.3 nM; in experiment [6] (setting [9]), 160 nM.
As for `CN(c1cc(Nc2cc(N)ncn2)c2ncn(C)c2n1)c1c(F)cc(C#N)cc1C1CC1` [Compound 14, 4-{[7-(6-Amino-pyrimidin-4-ylamino)-3-methyl-3H-imidazo[4,5-b]pyridin-5-yl]-methyl-amino}-3-cyclopropyl-5-fluoro-benzonitrile], the IC50 in experiment [1] turned out to be 17 nM; in experiment [2] it was 91.4 nM; in experiment [3], 279 nM; in experiment [4] (setting [8]), 1500 nM; in experiment [5] it was 3.83 nM.
As for `Cc1cc(C#N)ncc1Oc1cc(Nc2ccc(C(=O)NCC(C)O)cn2)c2ncn(C)c2n1` (centres unmarked) [Compound 24, 6-[5-(6-Cyano-4-methyl-pyridin-3-yloxy)-3-methyl-3H-imidazo[4,5-b]pyridin-7-ylamino]-N-(2-hydroxy-propyl)-nicotinamide], the IC50 in experiment [4] (setting [8]) came out at 3370 nM; in experiment [5], 9.01 nM; in experiment [6] (setting [9]), 151 nM.
As for `CN(c1cc(Nc2cc(N)ncn2)c2ncn(C)c2n1)C1CCOCC1(C)C` (centres unmarked) [Compound 11, N7-(6-Amino-pyrimidin-4-yl)-N5-(3,3-dimethyl-tetrahydro-pyran-4-yl)-3,N5-dimethyl-3H-imidazo[4,5-b]pyridine-5,7-diamine], the half-inhibitory concentration (IC50) in experiment [1] came out at 4.75 nM; in experiment [2] it was 27.2 nM; in experiment [3], 143 nM; in experiment [4] (setting [8]), 377 nM; in experiment [5], 1.81 nM.
For the compound `Cc1cc(C#N)ncc1Oc1cc(Nc2ccc(CN)cc2)c2ncn(C)c2n1` [Compound 57, 5-[7-[4-(aminomethyl)anilino]-3-methyl-imidazo[4,5-b]pyridin-5-yl]oxy-4-methyl-pyridine-2-carbonitrile formate salt], the results for the half-maximal inhibitory concentration (IC50) in experiment [4] (setting [8]), in experiment [5] and in experiment [6] (setting [9]) were 7460 nM, 45.4 nM and 405 nM, respectively.
Regarding `Cc1cc(C#N)ncc1Oc1cc(Nc2ccc(C(=O)N(C)C)nn2)c2ncn(C)c2n1` [Compound 73, 6-[[5-[(6-cyano-4-methyl-3-pyridyl)oxy]-3-methyl-imidazo[4,5-b]pyridin-7-yl]amino]-N,N-dimethyl-pyridazine-3-carboxamide], the half-inhibitory concentration (IC50) came to 199 nM in experiment [4] (setting [8]), 3.44 nM in experiment [5], 81 nM in experiment [6] (setting [9]) and 158 nM in experiment [7] (setting [10]).
For the compound `CCNC(=O)c1ccc(Nc2cc(Oc3cnc(C#N)cc3C)nc3c2ncn3C)cn1` [Compound 26, 5-[5-(6-Cyano-4-methyl-pyridin-3-yloxy)-3-methyl-3H-imidazo[4,5-b]pyridin-7-ylamino]-pyridine-2-carboxylic acid ethylamide], the half-inhibitory concentration (IC50) in experiment [1] came out at 873 nM; in experiment [2] it was 338 nM; in experiment [4] (setting [8]), 1530 nM; in experiment [5] it was 74 nM.
As for `CCNC(=O)c1ccc(Nc2cc(NC(C3CC3)C(F)(F)F)nc3c2ncn3C)cn1` (centres unmarked) [Compound 91, 5-[[5-[(1-cyclopropyl-2,2,2-trifluoro-ethyl)amino]-3-methyl-imidazo[4,5-b]pyridin-7-yl]amino]-N-ethyl-pyridine-2-carboxamide], the half-maximal inhibitory concentration (IC50) in experiment [1] amounted to 42 nM; in experiment [2], 157 nM; in experiment [3] it was 208 nM; in experiment [4] (setting [8]), 3150 nM; in experiment [5] it was 24.1 nM.
On to `CC(Oc1cc(Nc2cc(N)ncn2)c2ncn(C)c2n1)C1CC1` (centres unmarked) [Compound 72, N4-[5-(1-cyclopropylethoxy)-3-methyl-imidazo[4,5-b]pyridin-7-yl]pyrimidine-4,6-diamine], for which the IC50 in experiment [4] (setting [8]) amounted to 27.7 nM; in experiment [5], 1.41 nM; in experiment [6] (setting [9]), 124 nM; in experiment [7] (setting [10]) it was 57.2 nM.
As to `C[C@H]1COCC[C@@H]1N(C)c1cc(Nc2cc(N)ncn2)c2ncn(C)c2n1` [Compound 17, N7-(6-Amino-pyrimidin-4-yl)-3,N5-dimethyl-N5-((3R,4S)-3-methyl-tetrahydro-pyran-4-yl)-3H-imidazo[4,5-b]pyridine-5,7-diamine], the IC50 stood at 14.6 nM in experiment [1]; 64.6 nM in experiment [2]; 237 nM in experiment [3]; 905 nM in experiment [4] (setting [8]); 10.2 nM in experiment [5].

The values are drawn from patent publication US11564923B2, “Compounds and pharmaceutical compositions thereof for the treatment of inflammatory disorders” (Galapagos NV, priority 2017, dated 2023).
